Bounds are passed on as bounds.

The test system of the first assay is NCI-H460. Briefly: NCI-60 single-dose screen. In kind it is cell-based. As to conditions: Homo sapiens, single dose 10 µM, '-' = no inhibition, read-out: % Growth Inhibition. In short, it runs like this: (§1)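 NCI Developmental Therapeutics Program screen across 60 human cancer cell lines from nine tumor types; compounds tested at a single dose of 10 μM.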
The inhibition is how much of the control response was suppressed. Consider `COc1ccc(CSc2nc(-c3ccc(Cl)cc3)cc(-c3ccc(OC)cc3)n2)cc1` [Compound 15, 2-(4-Methoxybenzylthio)-4-(4-chlorophenyl)-6-(4-methoxyphenyl)pyrimidine], for which the inhibition at 10 µM is under 0%.

The test system of a further assay is NCI-H522. Nature of the assay: NCI-60 single-dose screen. In kind it is cell-based. Conditions: Homo sapiens, single dose 10 µM, '-' = no inhibition, read-out: % Growth Inhibition. The essentials: as §1
In the case of `COc1ccc(CSc2nc(-c3ccc(Cl)cc3)cc(-c3ccc(OC)cc3)n2)cc1` [Compound 15, 2-(4-Methoxybenzylthio)-4-(4-chlorophenyl)-6-(4-methoxyphenyl)pyrimidine], the inhibition at 10 µM is under 0%.

The subject of another assay is NCI/ADR-RES. Nature of the assay: NCI-60 single-dose screen. In kind it is cell-based. Conditions: Homo sapiens, single dose 10 µM, '-' = no inhibition, read-out: % Growth Inhibition. In short, it runs like this: as §1
Turning to `COc1ccc(CSc2nc(-c3ccc(Cl)cc3)cc(-c3ccc(OC)cc3)n2)cc1` [Compound 15, 2-(4-Methoxybenzylthio)-4-(4-chlorophenyl)-6-(4-methoxyphenyl)pyrimidine], the inhibition at 10 µM is under 0%.

A further assay deals with OVCAR-4. Briefly: NCI-60 single-dose screen. Conditions: Homo sapiens, single dose 10 µM, '-' = no inhibition, read-out: % Growth Inhibition. In kind it is cell-based. In short, it runs like this: as §1
On to `COc1ccc(CSc2nc(-c3ccc(Cl)cc3)cc(-c3ccc(OC)cc3)n2)cc1` [Compound 15, 2-(4-Methoxybenzylthio)-4-(4-chlorophenyl)-6-(4-methoxyphenyl)pyrimidine], for which the inhibition at 10 µM was under 0%.

In another assay the test system is OVCAR-5. Briefly: NCI-60 single-dose screen. Conditions: Homo sapiens, single dose 10 µM, '-' = no inhibition, read-out: % Growth Inhibition. In kind it is cell-based. In short, it runs like this:
as §1
In the case of `COc1ccc(CSc2nc(-c3ccc(Cl)cc3)cc(-c3ccc(OC)cc3)n2)cc1` [Compound 15, 2-(4-Methoxybenzylthio)-4-(4-chlorophenyl)-6-(4-methoxyphenyl)pyrimidine], the inhibition at 10 µM is under 0%.

For a further assay, the system named is OVCAR-8. Nature of the assay: NCI-60 single-dose screen. In kind it is cell-based. Conditions: Homo sapiens, single dose 10 µM, '-' = no inhibition, read-out: % Growth Inhibition. The essentials:
as §1
`COc1ccc(CSc2nc(-c3ccc(Cl)cc3)cc(-c3ccc(OC)cc3)n2)cc1` [Compound 15, 2-(4-Methoxybenzylthio)-4-(4-chlorophenyl)-6-(4-methoxyphenyl)pyrimidine]: the inhibition at 10 µM worked out at 1.69%.

The test system of another assay is PC-3. Briefly: NCI-60 single-dose screen. Conditions: Homo sapiens, single dose 10 µM, '-' = no inhibition, read-out: % Growth Inhibition. In kind it is cell-based. In short, it runs like this: as §1
With `COc1ccc(CSc2nc(-c3ccc(Cl)cc3)cc(-c3ccc(OC)cc3)n2)cc1` [Compound 15, 2-(4-Methoxybenzylthio)-4-(4-chlorophenyl)-6-(4-methoxyphenyl)pyrimidine], the inhibition at 10 µM stood at 17.5%.

Another assay relates to RPMI-8226. Nature of the assay: NCI-60 single-dose screen. In kind it is cell-based. Conditions: Homo sapiens, single dose 10 µM, '-' = no inhibition, read-out: % Growth Inhibition. The essentials: as §1
With `COc1ccc(CSc2nc(-c3ccc(Cl)cc3)cc(-c3ccc(OC)cc3)n2)cc1` [Compound 15, 2-(4-Methoxybenzylthio)-4-(4-chlorophenyl)-6-(4-methoxyphenyl)pyrimidine], the inhibition at 10 µM was under 0%.

For another assay, the system named is RXF 393. Briefly: NCI-60 single-dose screen. In kind it is cell-based. Conditions: Homo sapiens, single dose 10 µM, '-' = no inhibition, read-out: % Growth Inhibition. The essentials:
as §1
As for `COc1ccc(CSc2nc(-c3ccc(Cl)cc3)cc(-c3ccc(OC)cc3)n2)cc1` [Compound 15, 2-(4-Methoxybenzylthio)-4-(4-chlorophenyl)-6-(4-methoxyphenyl)pyrimidine], the inhibition at 10 µM is under 0%.

The test system of another assay is SF-539. Nature of the assay: NCI-60 single-dose screen. In kind it is cell-based. Conditions: Homo sapiens, single dose 10 µM, '-' = no inhibition, read-out: % Growth Inhibition. The essentials: as §1
As for `COc1ccc(CSc2nc(-c3ccc(Cl)cc3)cc(-c3ccc(OC)cc3)n2)cc1` [Compound 15, 2-(4-Methoxybenzylthio)-4-(4-chlorophenyl)-6-(4-methoxyphenyl)pyrimidine], the inhibition at 10 µM is under 0%.

The next assay relates to SK-MEL-28. Briefly: NCI-60 single-dose screen. Conditions: Homo sapiens, single dose 10 µM, '-' = no inhibition, read-out: % Growth Inhibition. In kind it is cell-based. The essentials: as §1
As for `COc1ccc(CSc2nc(-c3ccc(Cl)cc3)cc(-c3ccc(OC)cc3)n2)cc1` [Compound 15, 2-(4-Methoxybenzylthio)-4-(4-chlorophenyl)-6-(4-methoxyphenyl)pyrimidine], the inhibition at 10 µM is under 0%.

The subject of the next assay is SK-MEL-2. Briefly: NCI-60 single-dose screen. In kind it is cell-based. As to conditions: Homo sapiens, single dose 10 µM, '-' = no inhibition, read-out: % Growth Inhibition. In short, it runs like this:
as §1
For the compound `COc1ccc(CSc2nc(-c3ccc(Cl)cc3)cc(-c3ccc(OC)cc3)n2)cc1` [Compound 15, 2-(4-Methoxybenzylthio)-4-(4-chlorophenyl)-6-(4-methoxyphenyl)pyrimidine], the inhibition at 10 µM was under 0%.

For a further assay, the system named is SK-MEL-5. Nature of the assay: NCI-60 single-dose screen. In kind it is cell-based. Conditions: Homo sapiens, single dose 10 µM, '-' = no inhibition, read-out: % Growth Inhibition. In short, it runs like this: as §1
For the compound `COc1ccc(CSc2nc(-c3ccc(Cl)cc3)cc(-c3ccc(OC)cc3)n2)cc1` [Compound 15, 2-(4-Methoxybenzylthio)-4-(4-chlorophenyl)-6-(4-methoxyphenyl)pyrimidine], the inhibition at 10 µM was under 0%.

In the next assay the test system is SK-OV-3. Briefly: NCI-60 single-dose screen. As to conditions: Homo sapiens, single dose 10 µM, '-' = no inhibition, read-out: % Growth Inhibition. In kind it is cell-based. In short, it runs like this:
as §1
Turning to `COc1ccc(CSc2nc(-c3ccc(Cl)cc3)cc(-c3ccc(OC)cc3)n2)cc1` [Compound 15, 2-(4-Methoxybenzylthio)-4-(4-chlorophenyl)-6-(4-methoxyphenyl)pyrimidine], the inhibition at 10 µM is under 0%.

A further assay relates to SNB-19. Briefly: NCI-60 single-dose screen. As to conditions: Homo sapiens, single dose 10 µM, '-' = no inhibition, read-out: % Growth Inhibition. In kind it is cell-based. In short, it runs like this: as §1
`COc1ccc(CSc2nc(-c3ccc(Cl)cc3)cc(-c3ccc(OC)cc3)n2)cc1` [Compound 15, 2-(4-Methoxybenzylthio)-4-(4-chlorophenyl)-6-(4-methoxyphenyl)pyrimidine]: the inhibition at 10 µM is under 0%.

The next assay deals with SNB-75. Nature of the assay: NCI-60 single-dose screen. In kind it is cell-based. Conditions: Homo sapiens, single dose 10 µM, '-' = no inhibition, read-out: % Growth Inhibition. In short, it runs like this: as §1
For `COc1ccc(CSc2nc(-c3ccc(Cl)cc3)cc(-c3ccc(OC)cc3)n2)cc1` [Compound 15, 2-(4-Methoxybenzylthio)-4-(4-chlorophenyl)-6-(4-methoxyphenyl)pyrimidine], the inhibition at 10 µM is under 0%.

For a further assay, the system named is SR. Nature of the assay: NCI-60 single-dose screen. In kind it is cell-based. As to conditions: Homo sapiens, single dose 10 µM, '-' = no inhibition, read-out: % Growth Inhibition. The essentials: as §1
For the compound `COc1ccc(CSc2nc(-c3ccc(Cl)cc3)cc(-c3ccc(OC)cc3)n2)cc1` [Compound 15, 2-(4-Methoxybenzylthio)-4-(4-chlorophenyl)-6-(4-methoxyphenyl)pyrimidine], the inhibition at 10 µM turned out to be 8.9%.

For the next assay, the system named is T-47D. Nature of the assay: NCI-60 single-dose screen. In kind it is cell-based. As to conditions: Homo sapiens, T47D, single dose 10 µM, '-' = no inhibition, read-out: % Growth Inhibition. The essentials:
as §1
Take `COc1ccc(CSc2nc(-c3ccc(Cl)cc3)cc(-c3ccc(OC)cc3)n2)cc1` [Compound 15, 2-(4-Methoxybenzylthio)-4-(4-chlorophenyl)-6-(4-methoxyphenyl)pyrimidine]: the inhibition at 10 µM is under 0%.

Another assay deals with TK-10. Briefly: NCI-60 single-dose screen. In kind it is cell-based. As to conditions: Homo sapiens, single dose 10 µM, '-' = no inhibition, read-out: % Growth Inhibition. The essentials:
as §1
In the case of `COc1ccc(CSc2nc(-c3ccc(Cl)cc3)cc(-c3ccc(OC)cc3)n2)cc1` [Compound 15, 2-(4-Methoxybenzylthio)-4-(4-chlorophenyl)-6-(4-methoxyphenyl)pyrimidine], the inhibition at 10 µM is under 0%.

The subject of the next assay is U251. Nature of the assay: NCI-60 single-dose screen. In kind it is cell-based. As to conditions: Homo sapiens, U-251, single dose 10 µM, '-' = no inhibition, read-out: % Growth Inhibition. In short, it runs like this: as §1
On to `COc1ccc(CSc2nc(-c3ccc(Cl)cc3)cc(-c3ccc(OC)cc3)n2)cc1` [Compound 15, 2-(4-Methoxybenzylthio)-4-(4-chlorophenyl)-6-(4-methoxyphenyl)pyrimidine], for which the inhibition at 10 µM is under 0%.

A further assay relates to UACC-257. Nature of the assay: NCI-60 single-dose screen. Conditions: Homo sapiens, single dose 10 µM, '-' = no inhibition, read-out: % Growth Inhibition. In kind it is cell-based. In short, it runs like this: as §1
Take `COc1ccc(CSc2nc(-c3ccc(Cl)cc3)cc(-c3ccc(OC)cc3)n2)cc1` [Compound 15, 2-(4-Methoxybenzylthio)-4-(4-chlorophenyl)-6-(4-methoxyphenyl)pyrimidine]: the inhibition at 10 µM was under 0%.

Another assay has as its system UACC-62. Briefly: NCI-60 single-dose screen. In kind it is cell-based. As to conditions: Homo sapiens, single dose 10 µM, '-' = no inhibition, read-out: % Growth Inhibition. The essentials:
as §1
As to `COc1ccc(CSc2nc(-c3ccc(Cl)cc3)cc(-c3ccc(OC)cc3)n2)cc1` [Compound 15, 2-(4-Methoxybenzylthio)-4-(4-chlorophenyl)-6-(4-methoxyphenyl)pyrimidine], the inhibition at 10 µM is under 0%.

In the next assay the test system is UO-31. Briefly: NCI-60 single-dose screen. In kind it is cell-based. Conditions: Homo sapiens, single dose 10 µM, '-' = no inhibition, read-out: % Growth Inhibition. In short, it runs like this:
as §1
Consider `COc1ccc(CSc2nc(-c3ccc(Cl)cc3)cc(-c3ccc(OC)cc3)n2)cc1` [Compound 15, 2-(4-Methoxybenzylthio)-4-(4-chlorophenyl)-6-(4-methoxyphenyl)pyrimidine], for which the inhibition at 10 µM was under 0%.

These data come from paper PMC11576293, “New series of 4,6-diaryl pyrimidines: facile synthesis and antiproliferative activity as dual EGFR/VEGFR-2 inhibitors” (Frontiers in Chemistry, 2024).
